Reference: patent US6908909B2, “Liquid oral compositions comprising a calcium compound and an acidulant” (SmithKline Beecham plc, priority 1996, dated 2005)

Experiment: In-vitro study of phosphorus liberated from teeth exposed to citric acid solutions
Conditions: for Mean amount Phosphorus liberated (μg) ± 1 SD: 0.3% citric acid
Method: To investigate the importance of calcium supplementation on exposure of enamel to citric acid solutions, five experiments were undertaken, each using eight teeth. The teeth were first subjected to prophylaxis, washed with saline and then covered in an acid resistant wax with the exception of a 5 mm diameter experimental window.
In each experiment the teeth were subjected to six consecutive 5 min exposures with 0.3% citric acid solutions at a flow rate of 0.1 ml/min. The citric acid solutions were supplemented with either 0.0, 0.5, 1.5, 2.5, 5.0, 7.5 10 or 15 mM calcium in the form of calcium hydroxide and the pH was adjusted to 3.5 or 3.8 using 1.0 M sodium hydroxide. Samples of residual citric acid were collected after every 5 min exposure of the teeth and these were frozen at −4° C., prior to phosphorus analysis by the method of Chen et al (1956) Analytical Chemistry, Vol.28, p1956-8.

Structure (SMILES) | Mean amount Phosphorus liberated (μg) ± 1 SD (calcium 0.5 mM (mol ratio calcium:acid 0.03), pH 3.5) | Mean amount Phosphorus liberated (μg) ± 1 SD (calcium 0.5 mM (mol ratio calcium:acid 0.03), pH 3.8) | Mean amount Phosphorus liberated (μg) ± 1 SD (calcium 1.5 mM (mol ratio calcium:acid 0.10), pH 3.5) | Mean amount Phosphorus liberated (μg) ± 1 SD (calcium 1.5 mM (mol ratio calcium:acid 0.10), pH 3.8) | Mean amount Phosphorus liberated (μg) ± 1 SD (calcium 2.5 mM (mol ratio calcium:acid 0.17), pH 3.5) | Mean amount Phosphorus liberated (μg) ± 1 SD (calcium 2.5 mM (mol ratio calcium:acid 0.17), pH 3.8) | Mean amount Phosphorus liberated (μg) ± 1 SD (calcium 5 mM (mol ratio calcium:acid 0.35), pH 3.5) | Mean amount Phosphorus liberated (μg) ± 1 SD (calcium 5 mM (mol ratio calcium:acid 0.35), pH 3.8) | Mean amount Phosphorus liberated (μg) ± 1 SD (calcium 7.5 mM (mol ratio calcium:acid 0.52), pH 3.5) | Mean amount Phosphorus liberated (μg) ± 1 SD (calcium 7.5 mM (mol ratio calcium:acid 0.52), pH 3.8) | Mean amount Phosphorus liberated (μg) ± 1 SD (calcium 10 mM (mol ratio calcium:acid 0.70), pH 3.5) | Mean amount Phosphorus liberated (μg) ± 1 SD (calcium 10 mM (mol ratio calcium:acid 0.70), pH 3.8) | Mean amount Phosphorus liberated (μg) ± 1 SD (calcium 15 mM (mol ratio calcium:acid 1.05), pH 3.5) | Mean amount Phosphorus liberated (μg) ± 1 SD (calcium 15 mM (mol ratio calcium:acid 1.05), pH 3.8) | effect on erosive potential of a 0.3% citric acid solution (in words) (addition of calcium to 0.3% citric acid solution, effect greatest up to calcium to acid molar ratio of about 0.5) | Mean amount Phosphorus liberated (μg) ± 1 SD (calcium 0 mM (mol ratio calcium:acid 0.00), pH 3.5) | Mean amount Phosphorus liberated (μg) ± 1 SD (calcium 0 mM (mol ratio calcium:acid 0.00), pH 3.8)
[Ca+2].[OH-].[OH-] [calcium, calcium hydroxide] | 1.25 ± 0.14 µg | 1.02 ± 0.09 µg | 1.07 ± 0.15 µg | 0.83 ± 0.12 µg | 1.22 ± 0.14 µg | 0.63 ± 0.13 µg | 0.79 ± 0.06 µg | 0.46 ± 0.13 µg | 0.72 ± 0.1 µg | 0.32 ± 0.10 µg | 0.46 ± 0.13 µg | 0.24 ± 0.11 µg | 0.3 ± 0.10 µg | 0.14 ± 0.07 µg | reduces its erosive potential |  | 
O=C(O)CC(O)(CC(=O)O)C(=O)O [citric acid, reference compound] |  |  |  |  |  |  |  |  |  |  |  |  |  |  |  | 1.41 ± 0.11 µg | 1.26 ± 0.17 µg
